This note sets out measurements from patent US11878973B2, “Bicyclic compounds and their uses” (NOVARTIS AG, priority 2021, dated 2024).

By IC50 is commonly meant the concentration that inhibits the measured activity by half.

One assay deals with WRN helicase (Homo sapiens (Human), UniProt Q14191). Description: In vitro enzymatic activity assay on WRN helicase (DNA dependent ATPase assay, ADP-Glo). In kind it is biochemical. The conditions noted are these: geometric means of at least 2 determinations; read-out: WRN ATPase Activity (IC50). From the text:
An ATPase assay was set up to measure the DNA dependent ATP hydrolysis activity of WRN helicase. This assay was used also to assess the inhibition properties of compounds of the invention on DNA dependent WRN ATPase activity.
The core helicase motif of the WRN protein (aa N517-P1238) was produced for this assay (protein production as described above). […] The ADP-Glo assay kit (Promega, Madison, WI) allowing the quantification of ADP produced in ATP hydrolysis reactions was used for setting up this assay.
Time course experiments were first performed in order to determine the best enzymatic assay conditions (including buffer conditions, reaction time and concentrations of protein, ATP and DNA substrates). A typical reaction consists of 10 nM WRN protein, 0.2 nM FLAP26, and 300 micromolar ATP in the following assay buffer: 30 mM Tris pH7.5, 2 mM MgCl2, 0.02% BSA, 50 mM NaCl, 0.1% pluronic F127 prepared in DNAse free water. To evaluate the inhibition properties of compounds of the invention, serial dilutions were prepared in DMSO (10 half log dilutions from a 10 mM DMSO solution). […] The reaction was started by addition of 2.5 microliters of FLAP26 at 0.4 nM and incubated for 30 minutes at room temperature. The reaction was stopped with the addition of 5 microliters of the first ADP-Glo reagent and incubated for one hour to remove the excess amount of ATP. Afterwards, 10 microliters of ATP detection reagent was added and incubated for an additional hour before reading. Luminescence output was recorded using Tecan 1000 reader, with 5 minutes delay before reading. Each concentration of compound was tested in duplicates in the assay plate.
Following normalization of activity values for the wells to % inhibition (% inhibition=[(high control-sample)/(high control-low control)]×100), IC50 fitting was carried out from the duplicate determinations present on each plate according to [4]. Data analysis can also be carried out using commercially available software designed to derive IC50 values using 4-parameter fits (e.g. GraphPad Prism, XL fit). The reported IC50 values are the geometrical means of at least 2 independent replicates.
For orientation: ADP-Glo first removes unused ATP, then detects ADP through luciferase.

For the next assay, the system named is SW48 cells. Description: Proliferation assay SW48 (CellTiterGlo, 96 hours). The conditions noted are these: Homo sapiens, SW48, read-out: Proliferation Assay SW48 (GI50).
A further assay relates to DLD1-WRN-KO cells. The experiment in a line: Proliferation assay DLD1-WRN-KO (CellTiterGlo, 96 hours; off-target effects). Particulars: Homo sapiens, read-out: Proliferation Assay DLD1-WRN-KO (GI50). On the technique in general: ATP-based viability assays read luminescence as a measure of living cells.

Molecules are shown by their SMILES.

WRN helicase, sequence (Q14191 517-1238): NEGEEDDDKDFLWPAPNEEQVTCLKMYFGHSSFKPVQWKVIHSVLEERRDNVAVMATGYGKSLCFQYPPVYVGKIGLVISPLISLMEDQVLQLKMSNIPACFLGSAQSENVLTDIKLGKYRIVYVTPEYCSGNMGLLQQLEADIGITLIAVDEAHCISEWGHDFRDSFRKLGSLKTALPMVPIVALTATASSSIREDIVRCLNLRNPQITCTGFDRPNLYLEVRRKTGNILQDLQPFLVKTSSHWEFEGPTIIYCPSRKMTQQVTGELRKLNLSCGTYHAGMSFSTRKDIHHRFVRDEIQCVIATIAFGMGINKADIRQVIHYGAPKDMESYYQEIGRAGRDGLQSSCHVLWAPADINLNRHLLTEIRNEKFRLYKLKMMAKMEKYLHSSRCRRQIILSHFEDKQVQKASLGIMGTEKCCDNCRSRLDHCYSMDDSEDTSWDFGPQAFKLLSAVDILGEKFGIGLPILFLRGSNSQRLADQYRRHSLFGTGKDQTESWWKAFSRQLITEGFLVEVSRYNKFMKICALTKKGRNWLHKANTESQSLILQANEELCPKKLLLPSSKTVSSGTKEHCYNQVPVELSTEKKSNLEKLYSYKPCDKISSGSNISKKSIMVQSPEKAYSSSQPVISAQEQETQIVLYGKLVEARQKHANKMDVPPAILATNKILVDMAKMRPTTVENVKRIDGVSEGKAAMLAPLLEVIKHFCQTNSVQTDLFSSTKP

Take `CCc1c(N2CCN(C(=O)c3nccc(F)c3O)CC2)c(=O)n2nc(N3CCOCC3)nc2n1CC(=O)Nc1ccc(C(F)(F)F)cc1Cl` [Example 3, N-(2-chloro-4-(trifluoromethyl)phenyl)-2-(5-ethyl-6-(4-(4-fluoro-3-hydroxypicolinoyl)piperazin-1-yl)-2-morpholino-7-oxo-[1,2,4]triazolo[1,5-a]pyrimidin-4(7H)-yl)acetamide]: on WRN helicase, the IC50 worked out at 70 nM. In addition, the GI50 in the assay with SW48 cells is 90 nM; in the assay with DLD1-WRN-KO cells, more than 10000 nM.

Turning to `CCc1c(N2CCN(C(=O)c3ncccc3O)CC2)c(=O)n2nc(N3CCOCC3)nc2n1CC(=O)Nc1cc(Cl)c(C(F)(F)F)cc1C` [Example 4, N-(5-chloro-2-methyl-4-(trifluoromethyl)phenyl)-2-(5-ethyl-6-(4-(3-hydroxypicolinoyl)piperazin-1-yl)-2-morpholino-7-oxo-[1,2,4]triazolo[1,5-a]pyrimidin-4(7H)-yl)acetamide], the IC50 at WRN helicase was 40 nM. Also, the results for the GI50 with SW48 cells and in the assay with DLD1-WRN-KO cells were 60 nM and more than 10000 nM, respectively.

Regarding `CCc1c(N2CCN(C(=O)c3ncccc3O)CC2)c(=O)n2nc(N3CCOCC3)nc2n1CC(=O)Nc1cc(F)c(C(F)(F)F)cc1C` [Example 5, 2-(5-ethyl-6-(4-(3-hydroxypicolinoyl)piperazin-1-yl)-2-morpholino-7-oxo-[1,2,4]triazolo[1,5-a]pyrimidin-4(7H)-yl)-N-(5-fluoro-2-methyl-4-(trifluoromethyl)phenyl)acetamide], the IC50 at WRN helicase came to 90 nM. For the same compound, the GI50 is 120 nM in the assay on SW48 cells and more than 10000 nM in the assay with DLD1-WRN-KO cells.

Regarding `CCc1c(N2CCN(C(=O)c3nccc(Cl)c3O)CC2)c(=O)n2nc(N3CCOCC3)nc2n1CC(=O)Nc1cc(F)c(C(F)(F)F)cc1C` [Example 6, 2-(6-(4-(4-chloro-3-hydroxypicolinoyl)piperazin-1-yl)-5-ethyl-2-morpholino-7-oxo-[1,2,4]triazolo[1,5-a]pyrimidin-4(7H)-yl)-N-(5-fluoro-2-methyl-4-(trifluoromethyl)phenyl)acetamide], the IC50 on WRN helicase stood at 70 nM. For the same compound, the GI50 in the assay with SW48 cells is 270 nM; in the assay on DLD1-WRN-KO cells it was more than 10000 nM.

Turning to `CCc1c(N2CCN(C(=O)c3ncccc3O)CC2)c(=O)n2nc(N3CCOCC3)nc2n1CC(=O)Nc1cc(F)c(C(F)(F)F)cc1Cl` [Example 7, N-(2-chloro-5-fluoro-4-(trifluoromethyl)phenyl)-2-(5-ethyl-6-(4-(3-hydroxypicolinoyl)piperazin-1-yl)-2-morpholino-7-oxo-[1,2,4]triazolo[1,5-a]pyrimidin-4(7H)-yl)acetamide], the IC50 on WRN helicase worked out at 90 nM. Besides, the GI50 in the assay on SW48 cells was 210 nM; in the assay on DLD1-WRN-KO cells, more than 10000 nM.

On to `CCc1c(N2CCN(C(=O)c3ncccc3O)CC2)c(=O)n2nc(N3CCOCC3)nc2n1CC(=O)Nc1ccc(C(F)(F)F)cc1C` [Example 8, 2-(5-ethyl-6-(4-(3-hydroxypicolinoyl)piperazin-1-yl)-2-morpholino-7-oxo-[1,2,4]triazolo[1,5-a]pyrimidin-4(7H)-yl)-N-(2-methyl-4-(trifluoromethyl)phenyl)acetamide], for which, at WRN helicase, the IC50 turned out to be 80 nM. Also, the GI50 is 210 nM with SW48 cells and more than 10000 nM in the assay with DLD1-WRN-KO cells.

For `CCc1c(N2CCN(C(=O)c3nccc(Cl)c3O)CC2)c(=O)n2nc(N3CCOCC3)nc2n1CC(=O)Nc1ccc(C(F)(F)F)cc1C` [Example 9, 2-(6-(4-(4-chloro-3-hydroxypicolinoyl)piperazin-1-yl)-5-ethyl-2-morpholino-7-oxo-[1,2,4]triazolo[1,5-a]pyrimidin-4(7H)-yl)-N-(2-methyl-4-(trifluoromethyl)phenyl)acetamide], the concentration for half-maximal inhibition (IC50) at WRN helicase turned out to be 60 nM. Also, the GI50 is 350 nM with SW48 cells and more than 10000 nM with DLD1-WRN-KO cells.

With `CCc1c(N2CCN(C(=O)c3ncccc3O)CC2)c(=O)n2nc(N3CCOCC3)nc2n1CC(=O)Nc1ccc(C(F)(F)F)nc1Cl` [Example 10, N-(2-chloro-6-(trifluoromethyl)pyridin-3-yl)-2-(5-ethyl-6-(4-(3-hydroxypicolinoyl)piperazin-1-yl)-2-morpholino-7-oxo-[1,2,4]triazolo[1,5-a]pyrimidin-4(7H)-yl)acetamide], at WRN helicase, the IC50 worked out at 250 nM. For the same compound, the GI50 came out at 290 nM with SW48 cells and 9900 nM with DLD1-WRN-KO cells.

Regarding `CCc1c(N2CCN(C(=O)c3ncccc3O)CC2)c(=O)n2nc(N3CCOCC3)nc2n1CC(=O)Nc1ccc(C(F)(F)F)cc1F` [Example 11, 2-(5-ethyl-6-(4-(3-hydroxypicolinoyl)piperazin-1-yl)-2-morpholino-7-oxo-[1,2,4]triazolo[1,5-a]pyrimidin-4(7H)-yl)-N-(2-fluoro-4-(trifluoromethyl)phenyl)acetamide], the half-inhibitory concentration (IC50) at WRN helicase amounted to 110 nM. Also, the GI50 in the assay on SW48 cells was 380 nM; with DLD1-WRN-KO cells, more than 10000 nM.

As to `CCc1c(N2CCN(C(=O)c3ncccc3O)CC2)c(=O)n2nc(N3CCOCC3)nc2n1CC(=O)Nc1cc(C(F)(F)F)c(Cl)cc1C` [Example 12, N-(4-chloro-2-methyl-5-(trifluoromethyl)phenyl)-2-(5-ethyl-6-(4-(3-hydroxypicolinoyl)piperazin-1-yl)-2-morpholino-7-oxo-[1,2,4]triazolo[1,5-a]pyrimidin-4(7H)-yl)acetamide], the IC50 on WRN helicase worked out at 130 nM. For the same compound, the GI50 with SW48 cells was 550 nM; in the assay with DLD1-WRN-KO cells, more than 10000 nM.

For the compound `CCc1c(N2CCN(C(=O)c3ncccc3O)CC2)c(=O)n2nc(N3CCC[C@@H](F)C3)nc2n1CC(=O)Nc1ccc(C(F)(F)F)cc1C` [Example 14a, (R)-2-(5-ethyl-2-(3-fluoropiperidin-1-yl)-6-(4-(3-hydroxypicolinoyl)piperazin-1-yl)-7-oxo-[1,2,4]triazolo[1,5-a]pyrimidin-4(7H)-yl)-N-(2-methyl-4-(trifluoromethyl)phenyl)acetamide], at WRN helicase, the IC50 came out at 80 nM. Moreover, the GI50 is 370 nM in the assay on SW48 cells and more than 10000 nM in the assay with DLD1-WRN-KO cells.

`CCc1c(N2CCN(C(=O)c3ncccc3O)CC2)c(=O)n2nc(N3CCC[C@H](F)C3)nc2n1CC(=O)Nc1ccc(C(F)(F)F)cc1C` [Example 14b, (S)-2-(5-ethyl-2-(3-fluoropiperidin-1-yl)-6-(4-(3-hydroxypicolinoyl)piperazin-1-yl)-7-oxo-[1,2,4]triazolo[1,5-a]pyrimidin-4(7H)-yl)-N-(2-methyl-4-(trifluoromethyl)phenyl)acetamide]: the IC50 on WRN helicase came out at 90 nM. Moreover, the values for the GI50 with SW48 cells and in the assay on DLD1-WRN-KO cells were 260 nM and more than 10000 nM, respectively.

As to `CCc1c(N2CCN(C(=O)c3ncccc3O)CC2)c(=O)n2nc(N3CCC[C@@H](F)C3)nc2n1CC(=O)Nc1ccc(C(F)(F)F)nc1Cl` [Example 16a, (R)—N-(2-chloro-6-(trifluoromethyl)pyridin-3-yl)-2-(5-ethyl-2-(3-fluoropiperidin-1-yl)-6-(4-(3-hydroxypicolinoyl)piperazin-1-yl)-7-oxo-[1,2,4]triazolo[1,5-a]pyrimidin-4(7H)-yl)acetamide], the half-maximal inhibitory concentration (IC50) on WRN helicase turned out to be 190 nM. Besides, the GI50 is 340 nM in the assay on SW48 cells and more than 10000 nM in the assay with DLD1-WRN-KO cells.

For `CCc1c(N2CCN(C(=O)c3ncccc3O)CC2)c(=O)n2nc(N3CCC[C@H](F)C3)nc2n1CC(=O)Nc1ccc(C(F)(F)F)nc1Cl` [Example 16b, (S)—N-(2-chloro-6-(trifluoromethyl)pyridin-3-yl)-2-(5-ethyl-2-(3-fluoropiperidin-1-yl)-6-(4-(3-hydroxypicolinoyl)piperazin-1-yl)-7-oxo-[1,2,4]triazolo[1,5-a]pyrimidin-4(7H)-yl)acetamide], the IC50 at WRN helicase is 180 nM. Also, the GI50 in the assay with SW48 cells was 230 nM; in the assay on DLD1-WRN-KO cells it was more than 10000 nM.

In the case of `CCc1c(N2CCN(C(=O)c3ncccc3O)CC2)c(=O)n2nc(N3CCCC3)nc2n1CC(=O)Nc1ccc(C(F)(F)F)cc1C` [Example 17, 2-(5-ethyl-6-(4-(3-hydroxypicolinoyl)piperazin-1-yl)-7-oxo-2-(pyrrolidin-1-yl)-[1,2,4]triazolo[1,5-a]pyrimidin-4(7H)-yl)-N-(2-methyl-4-(trifluoromethyl)phenyl)acetamide], the IC50 at WRN helicase was found to be 140 nM. In addition, the figures for the GI50 with SW48 cells and in the assay on DLD1-WRN-KO cells were 240 nM and more than 10000 nM, respectively.

As for `CCc1c(N2CCN(C(=O)c3ncccc3O)CC2)c(=O)n2nc(N3CCCC3)nc2n1CC(=O)Nc1ccc(C(F)(F)F)nc1Cl` [Example 18, N-(2-chloro-6-(trifluoromethyl)pyridin-3-yl)-2-(5-ethyl-6-(4-(3-hydroxypicolinoyl)piperazin-1-yl)-7-oxo-2-(pyrrolidin-1-yl)-[1,2,4]triazolo[1,5-a]pyrimidin-4(7H)-yl)acetamide], at WRN helicase, the IC50 is 180 nM. The GI50 in the assay on SW48 cells was 260 nM; in the assay with DLD1-WRN-KO cells it was more than 10000 nM.
